Results as given in patent publication US7084127B2, “C2,5′-disubstituted and N6, C2,5′-trisubstituted adenosine derivatives and their different uses” (Universiteit Leiden, priority 2001, dated 2006).
Where two headings read alike, the source gives them in different places. One block for each compound: values may come before it.

Key:
[1] = molecular target: T1, A2A receptor in rat striatum (Rattus norvegicus, UniProt P30543); assay: Radioligand binding, displacement of [3H]ZM241385 from rat striatal membranes;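 note: displacement assays run in the absence of GTP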
T1 construct: the A2A receptor in rat striatum; from tissue; host or cells: rat striatum
Procedure: (§1) Incubations were carried out for 1 hr at 37° C. and were terminated by rapid filtration over Whatman GF/B filters, using a Brandell cell harvester (Brandell, Gaithersburg, Md.). Tubes were washed three times with 3 ml of buffer. Radioactivity was determined in a Beckman 5500B γ-counter. Nonspecific binding was determined in the presence of 10^−5 M R-PIA.
(§2) All compounds were tested in radioligand binding assays to determine their affinities for the adenosine A1 receptor in rat brain cortex, the A2A receptor in rat striatum and the human A3 receptor as expressed in HEK 293 cells (Table 2). […] AB-MECA, an A3 receptor agonist, was also used. Displacement experiments were performed in the absence of GTP.

[2] = molecular target: T2, human A3 receptor as expressed in HEK 293 cells (Homo sapiens, UniProt P0DMS8); assay: Radioligand binding, displacement of [125I]AB MECA, HEK 293 cell membranes
T2 construct: expressed in transfected cells; host or cells: HEK 293 cells (membrane suspension)
T2 sequence (P0DMS8 1-318): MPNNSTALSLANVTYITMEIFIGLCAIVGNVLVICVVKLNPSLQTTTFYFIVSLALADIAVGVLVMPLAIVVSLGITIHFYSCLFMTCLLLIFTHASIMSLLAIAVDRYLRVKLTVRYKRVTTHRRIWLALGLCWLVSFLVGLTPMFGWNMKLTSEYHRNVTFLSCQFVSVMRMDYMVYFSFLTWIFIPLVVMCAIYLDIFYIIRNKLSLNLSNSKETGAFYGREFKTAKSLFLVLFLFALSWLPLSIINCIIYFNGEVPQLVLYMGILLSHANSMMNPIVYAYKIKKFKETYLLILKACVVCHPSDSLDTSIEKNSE
Procedure: as §1, §2

[3] = molecular target: T3, human adenosine A1 receptors expressed in CHO cells (Homo sapiens, UniProt P30542); assay: cAMP assay A1 (inhibition of forskolin-induced cAMP production); type: cell-based; conditions: for % inhib. A1 of forskolin-induced cAMP: compared to reference full agonist CPA (10 μM) in A1 CHO cells, tested at ±100 × Ki, ±SEM, n = 3, forskolin 10 μM
T3 construct: expressed in transfected cells; host or cells: CHO cells
T3 sequence (P30542 1-326): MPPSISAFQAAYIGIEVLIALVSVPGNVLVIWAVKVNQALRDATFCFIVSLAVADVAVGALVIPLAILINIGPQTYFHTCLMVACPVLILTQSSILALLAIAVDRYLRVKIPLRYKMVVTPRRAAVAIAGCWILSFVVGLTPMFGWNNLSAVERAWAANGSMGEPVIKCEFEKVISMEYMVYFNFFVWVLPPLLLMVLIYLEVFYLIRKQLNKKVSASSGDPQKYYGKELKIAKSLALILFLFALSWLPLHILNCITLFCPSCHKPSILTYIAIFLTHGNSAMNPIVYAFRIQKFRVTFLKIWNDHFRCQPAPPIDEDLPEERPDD
Procedure: cAMP assay A1 and A3 CHO cells expressing either the human adenosine A1 or A3 receptor were grown overnight as a monolayer in 24 wells tissue culture plates (400 μl/well; 2×10^5cells/well). cAMP generation was performed in Dulbecco's Modified Eagles Medium (DMEM)/N-2-hydroxyethylpiperazin-N′-2-ethansulfonic acid (HEPES) buffer (0.60 g HEPES/50 ml DMEM pH 7.4). […] After incubation for 40 minutes at 37° C., 100 μl forskolin (final concentration 10 μM) was added. After 15 minutes at 37° C., the reaction was terminated by removing the medium and adding 200 μL 0.1 M HCl. Wells were stored at −20° C. until assay
The amounts of cAMP were determined after a protocol with cAMP binding protein^28 with the following minor modifications. As a buffer was used 150 mM K2HPO4/10 mM EDTA/0.2% Bovine Serum Albumine (BSA) at pH 7.5. Samples (20 μl+30 μl 0.1 M HCl) were incubated for at least 2.5 hours at 0° C. before filtration over Whatman GF/B filters. Filters were additionally rinsed with 2×2 ml TrisHCl buffer (pH 7.4, 4° C.). Filters were counted in Packard Emulsifier Safe scintillation fluid (3.5 ml) after 24 hours of extraction. […]

[4] = molecular target: T4, adenosine A1 receptor in rat brain cortex (Rattus norvegicus, UniProt P25099); assay: Radioligand binding, displacement of [3H]DPCPX from rat cortical membranes; conditions: ligand 10^−5 M
T4 construct: the adenosine A1 receptor in rat brain cortex; from tissue; host or cells: rat brain cortex
T4 sequence (P25099 1-326): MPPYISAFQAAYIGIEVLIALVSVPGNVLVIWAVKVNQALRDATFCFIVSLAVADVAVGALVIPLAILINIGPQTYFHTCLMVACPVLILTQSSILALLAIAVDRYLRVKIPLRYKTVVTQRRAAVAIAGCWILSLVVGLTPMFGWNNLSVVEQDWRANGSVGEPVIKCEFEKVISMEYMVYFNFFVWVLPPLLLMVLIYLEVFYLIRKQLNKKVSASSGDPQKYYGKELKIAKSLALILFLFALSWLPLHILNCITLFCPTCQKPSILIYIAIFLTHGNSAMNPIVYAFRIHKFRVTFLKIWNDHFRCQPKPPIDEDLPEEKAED
Procedure: as §1, §2

[5] = molecular target: T5, human adenosine A2A receptors expressed in CHO cells (Homo sapiens, UniProt P29274); assay: cAMP assay A2A (stimulation of cAMP production); type: cell-based
T5 construct: expressed in transfected cells; host or cells: CHO cells
Procedure: cAMP assay A2A CHO cells expressing human adenosine A2A receptors were grown overnight as a monolayer in 24 wells tissue culture plates (400 μL/well; 2×10^5 cells/well). cAMP generation was performed in Dulbecco's Modified Eagles Medium (DMEM)/N-2-hydroxyethylpiperazin-N′-2-ethanesulfonic acid (HEPES) buffer (0.60 g HEPES/50 mL DMEM pH 7.4). To each well, washed three times with DMEM/HEPES buffer (250 μλ), 100 μl DMEM/HEPES buffer, 100 μl adenosine deaminase (final concentration 5 IU/ml) and 100 μl of a mixture of rolipram and cilostamide (final concentration 50 μM each) were added. After incubation for 40 minutes at 37° C., 100 μl agonist was added. […] After 15 minutes at 37° C., the reaction was terminated by removing the medium and adding 200 μl 0.1 M HCl. Wells were stored at −20° C. until assay.
The amounts of cAMP were determined after a protocol with cAMP binding protein^36 with the following minor modifications. As a buffer was used 150 mM K2HPO4/10 mM EDTA/0.2% Bovine Serum Albumine (BSA) at pH 7.5. Samples (20 μl+30 μl 0.1 M HCl) were incubated for at least 2.5 hours at 0° C. before filtration over Whatman GF/B filters. […] Filters were counted in Packard Emulsifier Safe scintillation fluid (3.5 ml) after 24 hours of extraction.
Data Analysis Apparent Ki and EC50 values were computed from the displacement curves by non-linear regression of the competition curves with the software package Prism (Graph Pad, San Diego, Calif.)

[6] = molecular target: T6, human adenosine A3 receptor (Homo sapiens, UniProt P0DMS8); assay: cAMP assay A3 (inhibition of forskolin-induced cAMP production); type: cell-based
T6 construct: expressed in transfected cells; HEK 293 cells according to b145 and b219
T6 sequence (P0DMS8 1-318): T2 sequence (P0DMS8 1-318)
Procedure: cAMP assay A3 CHO cells expressing the human adenosine A3 receptor were grown overnight as a monolayer in 24 wells tissue culture plates (400 μl/well; 2×10^5 cells/well). cAMP generation was performed in Dulbecco's Modified Eagles Medium (DMEM)/N-2-hydroxyethylpiperazin-N′-2-ethansulfonic acid (HEPES) buffer (0.60 g HEPES/50 ml DMEM pH 7.4). […] After incubation for 40 minutes at 37° C., 100 μl forskolin (final concentration 10 μM) was added. After 15 minutes at 37° C., the reaction was terminated by removing the medium and adding 200 μl 0.1 M HCl. Wells were stored at −20° C. until assay. The amounts of cAMP were determined after a protocol with cAMP binding protein^36 with the following minor modifications. As a buffer was used 150 mM K2HPO4/10 mM EDTA/0.2% Bovine Serum Albumine (BSA) at pH 7.5. Samples (20 μl+30 μl 0.1 M HCl) were incubated for at least 2.5 hours at 0° C. before filtration over Whatman GF/B filters. […] Filters were counted in Packard Emulsifier Safe scintillation fluid (3.5 ml) after 24 hours of extraction.
All compounds were also tested in functional assays.
The ability of the compounds to inhibit forskolin-stimulated (10 μM) cAMP production via the adenosine A3 receptor was also studied.
The amounts of cAMP were determined after a protocol with cAMP binding protein^28 with the following minor modifications. As a buffer was used 150 mM K2HPO4/10 mM EDTA/0.2% Bovine Serum Albumine (BSA) at pH 7.5. Samples (20 μl+30 μl 0.1 M HCl) were incubated for at least 2.5 hours at 0° C. before filtration over Whatman GF/B filters. […] Filters were counted in Packard Emulsifier Safe scintillation fluid (3.5 ml) after 24 hours of extraction.

[7] = [3H]ZM241385, rat striatal membranes
[8] = [3H]ZM241385, rat striatal membranes, ligand 10^−5 M
[9] = cAMP production, human A2A in CHO cells
[10] = compared to full agonist CGS 21680

T5 sequence (P29274 whole entry): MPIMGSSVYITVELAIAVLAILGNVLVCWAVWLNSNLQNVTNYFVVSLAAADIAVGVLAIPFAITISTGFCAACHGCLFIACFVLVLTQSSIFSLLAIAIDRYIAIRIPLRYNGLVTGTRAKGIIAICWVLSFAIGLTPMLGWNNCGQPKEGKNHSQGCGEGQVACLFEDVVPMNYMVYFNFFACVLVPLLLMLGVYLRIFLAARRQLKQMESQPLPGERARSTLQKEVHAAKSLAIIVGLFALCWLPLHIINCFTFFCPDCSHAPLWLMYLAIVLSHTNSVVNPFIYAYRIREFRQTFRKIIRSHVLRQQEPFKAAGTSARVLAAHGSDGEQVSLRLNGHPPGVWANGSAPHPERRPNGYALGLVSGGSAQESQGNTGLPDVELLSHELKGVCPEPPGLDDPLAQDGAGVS
T1 sequence (P30543 whole entry): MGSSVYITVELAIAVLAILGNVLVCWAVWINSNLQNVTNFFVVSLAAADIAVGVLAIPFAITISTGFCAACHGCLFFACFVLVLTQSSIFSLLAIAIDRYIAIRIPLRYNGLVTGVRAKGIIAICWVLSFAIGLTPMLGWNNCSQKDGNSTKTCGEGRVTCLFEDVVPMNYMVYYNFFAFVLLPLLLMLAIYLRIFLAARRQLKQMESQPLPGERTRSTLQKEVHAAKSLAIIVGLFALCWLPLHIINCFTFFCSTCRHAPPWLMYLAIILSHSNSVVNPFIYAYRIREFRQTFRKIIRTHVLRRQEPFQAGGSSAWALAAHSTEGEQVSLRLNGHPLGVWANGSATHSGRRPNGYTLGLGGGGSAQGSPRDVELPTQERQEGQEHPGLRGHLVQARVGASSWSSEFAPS

Ki [1, 7]: 3900 ± 580 nM
Compound: 5′-Deoxy-2-iodo-5′-methylthioadenosine [Compound 33]

Compound: OC[C@H]1O[C@@H](n2cnc3c(NC4CCCC4)nc(Cl)nc32)[C@H](O)[C@@H]1O [2-Cl-CPA, reference compound]
% displacement at 10^−5 M A2A [1, 8]: 53.1%

Compound: OC[C@H]1O[C@@H](n2cnc3c(NC4CCCC4)ncnc32)[C@H](O)[C@@H]1O [CPA, reference compound]
% displacement at 10^−5 M A2A [1]: 45.9%
Ki ([2]; [125I]AB MECA, human A3 receptor in HEK 293 cells, read-out: Ki A3): 281 ± 56 nM
inhibition at 10 µM ([3]; CHO, read-out: % inhib. A1 of forskolin-induced cAMP): 69 ± 3%

Compound: CNC(=O)[C@H]1O[C@@H](n2cnc3c(NCc4cccc(I)c4)nc(Cl)nc32)[C@H](O)[C@@H]1O [Cl-IB-MECA, reference compound]
% displacement at 10^−5 M A2A [1, 8]: 23.5%

Compound: Nc1nc(I)nc2c1ncn2[C@@H]1O[C@H](CO)[C@@H](O)[C@H]1O [Compound 1, 2-Iodoadenosine]
% displacement at 10^−5 M A1 [4]: 36.1%
Emax ([5]; CHO, read-out: Emax (%) A2A): 112 ± 7%
EC50 [5, 9]: 5.4 ± 0.7 µM

Compound: CC(C)CC=NNc1nc(N)c2ncn([C@@H]3O[C@H](CO)[C@@H](O)[C@H]3O)c2n1 [Compound 3, 2-(N′-3-Methyl-1-butylidenehydrazino)adenosine]
% displacement at 10^−5 M A1 [4]: 18.9%
Ki [1, 7]: 20 ± 7 nM
Ki [2]: 38.3 ± 3.3 nM
Emax ([5]; CHO; read-out: Emax (%) A2A): 92 ± 2%
EC50 [5, 9]: 1.1 ± 0.2 µM
agonist behaviour, cAMP production via adenosine A2A receptor [5, 10]: full agonists
agonist behaviour, inhibition of forskolin-induced cAMP via adenosine A3 receptor ([6]; compared to reference full agonist Cl-IB-MECA): partial agonist
Emax at 3 µM ([6]; read-out: Emax (%) A3): 24%

Ki [1, 7]: 60 ± 20 nM
EC50 [5, 9]: 0.7 ± 0.1 µM
Emax (%) A2A ([5]; compared to Emax of CGS 21680 (10 μM) in A2A CHO cells, ±SEM, n = 3; n.a. = not active, no cAMP produced at 30 μM (35) or 100 μM): 45 ± 6%
Compound: CCCCC#Cc1nc(N)c2ncn([C@@H]3O[C@H](CSC)[C@@H](O)[C@H]3O)c2n1 [Compound 37]

Compound: CSC[C@H]1O[C@@H](n2cnc3c(N)nc(NN=CCC(C)C)nc32)[C@H](O)[C@@H]1O [Compound 45, 5′-Deoxy-2-(N′-3-methyl-1-butylidenehydrazino)-5′-methylthioadenosine]
% displacement at 10^−5 M A1 [4]: 18.9%
Ki [1, 7]: 220 ± 20 nM
Ki [2]: 253 ± 36 nM
Emax ([5]; CHO; read-out: Emax (%) A2A): 44 ± 4%
EC50 [5, 9]: 5 ± 0.6 µM
Emax at 30 µM ([6]; read-out: Emax (%) A3): 41%

Compound: CCSC[C@H]1O[C@@H](n2cnc3c(N)nc(NN=CCC(C)C)nc32)[C@H](O)[C@@H]1O [Compound 46, 5′-Deoxy-2-(N′-3-methyl-1-butylidenehydrazino)-5′-ethylthioadenosine]
% displacement at 10^−5 M A1 [4]: 21.2%
Ki [1, 7]: 500 ± 40 nM
Ki [2]: 814 ± 132 nM
Emax ([5]; CHO; read-out: Emax (%) A2A): 101 ± 4%
EC50 [5, 9]: 7.5 ± 0.3 µM
agonist behaviour, cAMP production via adenosine A2A receptor [5, 10]: full agonists
Emax at 100 µM ([6]; read-out: Emax (%) A3): 7%

Compound: CCCSC[C@H]1O[C@@H](n2cnc3c(N)nc(NN=CCC(C)C)nc32)[C@H](O)[C@@H]1O [Compound 47, 5′-Deoxy-2-(N′-3-methyl-1-butylidenehydrazino)-5′-propylthioadenosine]
% displacement at 10^−5 M A1 [4]: 22.0%
Ki [1, 7]: 1500 ± 280 nM
Ki [2]: 697 ± 31 nM
Emax ([5]; CHO; read-out: Emax (%) A2A): 126 ± 3%
EC50 [5, 9]: 12.9 ± 0.9 µM
agonist behaviour, cAMP production via adenosine A2A receptor [5, 10]: full agonists
Emax at 100 µM ([6]; read-out: Emax (%) A3): 16%

Compound: CC(C)CC=NNc1nc(N)c2ncn([C@@H]3O[C@H](CSC(C)C)[C@@H](O)[C@H]3O)c2n1 [Compound 48, 5′-Deoxy-2-(N′-3-methyl-1-butylidenehydrazino)-5′-isopropylthioadenosine]
% displacement at 10^−5 M A1 [4]: 13.0%
Ki [1, 7]: 1800 ± 230 nM
Ki [2]: 409 ± 118 nM
Emax ([5]; CHO; read-out: Emax (%) A2A): 56 ± 1%
EC50 [5, 9]: 10.4 ± 1 µM
Emax at 30 µM ([6]; read-out: Emax (%) A3): 26%

Ki [1, 7]: 366 ± 109 nM
% inhib. A1 of forskolin-induced cAMP [3]: 74 ± 4%
Compound: COC[C@H]1O[C@@H](n2cnc3c(NC4CCCC4)ncnc32)[C@H](O)[C@@H]1O [Compound 67, N^6-cyclopentyl-5′-O-methyladenosine]

Ki [1, 7]: 373 ± 80 nM
% inhib. A1 of forskolin-induced cAMP [3]: 53 ± 10%
Compound: COC[C@H]1O[C@@H](n2cnc3c(NCc4cccc(I)c4)ncnc32)[C@H](O)[C@@H]1O [Compound 68, N^6-(3-iodobenzyl)-5′-O-methyladenosine]

Ki [1, 7]: 1390 ± 140 nM
% inhib. A1 of forskolin-induced cAMP [3]: 73 ± 4%
Compound: COC[C@H]1O[C@@H](n2cnc3c(NC4CCCC4)nc(Cl)nc32)[C@H](O)[C@@H]1O [Compound 70, N^6-Cyclopentyl-2-chloro-5′-O-methyladenosine]

Ki [1, 7]: 527 ± 21 nM
% inhib. A1 of forskolin-induced cAMP [3]: 37 ± 15%
Compound: COC[C@H]1O[C@@H](n2cnc3c(NCc4cccc(I)c4)nc(Cl)nc32)[C@H](O)[C@@H]1O [Compound 71, N^6-(3-iodobenzyl)-2-Chloro-5′-O-methyladenosine]

% displacement at 10^−5 M A2A [1, 8]: 33.9%
% inhib. A1 of forskolin-induced cAMP [3]: 69 ± 6%
Compound: CCOC[C@H]1O[C@@H](n2cnc3c(NC4CCCC4)ncnc32)[C@H](O)[C@@H]1O [Compound 73, N^6-cyclopentyl-5′-O-ethyladenosine]

% displacement at 10^−5 M A2A [1, 8]: 40.4%
% inhib. A1 of forskolin-induced cAMP [3]: 6 ± 21%
Compound: CCOC[C@H]1O[C@@H](n2cnc3c(NCc4cccc(I)c4)ncnc32)[C@H](O)[C@@H]1O [Compound 74, N^6-(3-Iodobenzyl)-5′-O-Ethyladenosine]

Ki [1, 7]: 1730 ± 700 nM
% inhib. A1 of forskolin-induced cAMP [3]: 62 ± 6%
Compound: CCOC[C@H]1O[C@@H](n2cnc3c(NC4CCCC4)nc(Cl)nc32)[C@H](O)[C@@H]1O [Compound 76, N^6-cyclopentyl-2-Chloro-5′-O-ethyladenosine]

Ki [1, 7]: 848 ± 60 nM
% inhib. A1 of forskolin-induced cAMP [3]: −72 ± 38 %
Compound: CCOC[C@H]1O[C@@H](n2cnc3c(NCc4cccc(I)c4)nc(Cl)nc32)[C@H](O)[C@@H]1O [Compound 77, N^6-(3-iodobenzyl)-2-Chloro-5′-O-ethyladenosine]

% displacement at 10^−5 M A2A [1, 8]: 24.3%
% inhib. A1 of forskolin-induced cAMP [3]: 62 ± 4%
Compound: O[C@@H]1[C@H](O)[C@@H](COC2CC2)O[C@H]1n1cnc2c(NC3CCCC3)ncnc21 [Compound 79, N^6-Cyclopentyl-5′-O-cyclopropyladenosine]

% displacement at 10^−5 M A2A [1, 8]: 43.7%
% inhib. A1 of forskolin-induced cAMP [3]: −104 ± 22 %
Compound: O[C@@H]1[C@H](O)[C@@H](COC2CC2)O[C@H]1n1cnc2c(NCc3cccc(I)c3)ncnc21 [Compound 80, N^6-(3-Iodobenzyl)-5′-O-cyclopropyladenosine]

% displacement at 10^−5 M A2A [1, 8]: 34.6%
% inhib. A1 of forskolin-induced cAMP [3]: 43 ± 9%
Compound: O[C@@H]1[C@H](O)[C@@H](COC2CC2)O[C@H]1n1cnc2c(NC3CCCC3)nc(Cl)nc21 [Compound 82, N^6-cyclopentyl-2-Chloro-5′-O-cyclopropyladenosine]

% displacement at 10^−5 M A2A [1, 8]: 38.7%
% inhib. A1 of forskolin-induced cAMP [3]: −118 ± 41 %
Compound: O[C@@H]1[C@H](O)[C@@H](COC2CC2)O[C@H]1n1cnc2c(NCc3cccc(I)c3)nc(Cl)nc21 [Compound 83, N^6-(3-Iodobenzyl)-2-chloro-5′-O-cyclopropyladenosine]

% inhib. A1 of forskolin-induced cAMP [3]: 61 ± 2%
Compound: N^6-Cyclopentyl-5′-O-Cyclopropyladenosine [Compound 78]
